Reference: ChEMBL document CHEMBL4385634, “Melanogenic inhibitory effects of Triangularin in B16F0 melanoma cells, in vitro and molecular docking studies” (Bioorg Med Chem, 2019)

Experiments:
Tyrosinase [1] = biological target: T1, Tyrosinase (Mus musculus, UniProt P11344)
T1 sequence (P11344 whole entry): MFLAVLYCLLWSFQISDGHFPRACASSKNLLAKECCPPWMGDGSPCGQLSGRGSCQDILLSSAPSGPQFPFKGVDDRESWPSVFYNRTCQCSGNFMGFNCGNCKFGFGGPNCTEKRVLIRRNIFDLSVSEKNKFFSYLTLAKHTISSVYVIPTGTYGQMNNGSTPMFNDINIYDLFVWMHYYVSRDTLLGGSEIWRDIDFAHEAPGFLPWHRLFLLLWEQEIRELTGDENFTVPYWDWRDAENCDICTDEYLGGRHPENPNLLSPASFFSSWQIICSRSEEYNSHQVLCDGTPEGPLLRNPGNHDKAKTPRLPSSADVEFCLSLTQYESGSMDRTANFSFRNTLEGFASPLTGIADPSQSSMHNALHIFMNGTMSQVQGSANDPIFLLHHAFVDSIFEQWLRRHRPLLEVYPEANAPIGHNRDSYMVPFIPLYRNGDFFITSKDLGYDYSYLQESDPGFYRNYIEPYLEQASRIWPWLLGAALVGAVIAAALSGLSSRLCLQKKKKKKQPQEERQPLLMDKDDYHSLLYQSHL
Description: Inhibition of tyrosinase in mouse B16F0 cells using L-DOPA as substrate by UV-Visible spectrophotometric analysis

[2] = biological target: T2, Tyrosinase (Mus musculus) (UniProt P11344); experiment: Inhibition of intracellular tyrosinase in mouse B16F0 cells using L-DOPA as substrate preincubated with compound followed by substrate addition and measured after 20 mins by UV-Visible spectrophotometric analysis relative to control; type: cell-based
T2 sequence (whole entry): T1 sequence (P11344 whole entry)

[3] = biological target: T2, Tyrosinase (Mus musculus); experiment: Potency index, ratio of compound effect to KA effect for inhibition of intracellular tyrosinase in mouse B16F0 cells using L-DOPA as substrate preincubated with compound followed by substrate addition and measured after 20 mins by UV-Visible spectrophotometric analysis; type: cell-based
[4] = (§1) Cytotoxicity against mouse B16F0 cells incubated for 24 hrs by MTT assay; type: cell-based, B16-F0; conditions: B16F0 cells, read-out: MNCC
B16-F0 = experiment: as §1; type: cell-based; conditions: b16-f0, 24 h
[5] = biological target: T2, Tyrosinase (Mus musculus); experiment: Inhibition of intracellular tyrosinase in mouse B16F0 cells at 50 uM using L-DOPA as substrate preincubated with compound followed by substrate addition and measured after 20 mins by UV-Visible spectrophotometric analysis relative to control; type: cell-based
Tyrosinase [6] = biological target: T3, Tyrosinase (Agaricus bisporus, UniProt O42713); experiment: Inhibition of mushroom tyrosinase diphenolase activity using L-dopa as substrate preincubated for 10 mins followed by substrate addition by UV-Visible spectrophotometric analysis
T3 sequence (O42713 whole entry): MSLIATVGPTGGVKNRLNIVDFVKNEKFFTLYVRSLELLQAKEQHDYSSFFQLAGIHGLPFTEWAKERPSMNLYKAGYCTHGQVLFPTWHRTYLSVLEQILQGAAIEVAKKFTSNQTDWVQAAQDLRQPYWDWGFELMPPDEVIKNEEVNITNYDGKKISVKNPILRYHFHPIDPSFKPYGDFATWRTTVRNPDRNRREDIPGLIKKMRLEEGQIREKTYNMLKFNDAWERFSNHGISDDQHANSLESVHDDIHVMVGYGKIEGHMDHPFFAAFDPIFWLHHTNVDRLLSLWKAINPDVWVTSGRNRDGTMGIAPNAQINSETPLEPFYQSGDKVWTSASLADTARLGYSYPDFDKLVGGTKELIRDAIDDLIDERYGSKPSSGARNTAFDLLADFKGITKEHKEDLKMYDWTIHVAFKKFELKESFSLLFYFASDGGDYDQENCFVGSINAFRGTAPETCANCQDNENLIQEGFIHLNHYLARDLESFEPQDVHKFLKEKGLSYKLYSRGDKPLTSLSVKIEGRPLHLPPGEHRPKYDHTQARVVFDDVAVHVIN

[7] = biological target: T2, Tyrosinase (Mus musculus); experiment: Inhibition of intracellular tyrosinase in mouse B16F0 cells at 1 uM using L-DOPA as substrate preincubated with compound followed by substrate addition and measured after 20 mins by UV-Visible spectrophotometric analysis relative to control; type: cell-based
[8] = biological target: T2, Tyrosinase (Mus musculus); experiment: Inhibition of intracellular tyrosinase in mouse B16F0 cells at 25 uM using L-DOPA as substrate preincubated with compound followed by substrate addition and measured after 20 mins by UV-Visible spectrophotometric analysis relative to control; type: cell-based
[9] = biological target: T2, Tyrosinase (Mus musculus); experiment: Potency index, ratio of IC50 for KA to IC50 for test compound for inhibition of tyrosinase in mouse B16F0 cells using L-DOPA as substrate by UV-Visible spectrophotometric analysis; type: cell-based
[10] = biological target: T2, Tyrosinase (Mus musculus); experiment: Inhibition of intracellular tyrosinase in mouse B16F0 cells at 100 uM using L-DOPA as substrate preincubated with compound followed by substrate addition and measured after 20 mins by UV-Visible spectrophotometric analysis relative to control; type: cell-based
[11] = biological target: T2, Tyrosinase (Mus musculus); experiment: Potency index, ratio of IC50 for KA to IC50 for test compound for inhibition of tyrosinase in mouse B16F0 cells assessed as reduction in melanin production incubated for 24 hrs by spectrophotometric analysis; type: cell-based
Tyrosinase [12] = biological target: T1, Tyrosinase; experiment: Inhibition of tyrosinase in mouse B16F0 cells assessed as reduction in melanin production incubated for 24 hrs by spectrophotometric analysis; type: cell-based
[13] = biological target: T2, Tyrosinase (Mus musculus); experiment: Inhibition of intracellular tyrosinase in mouse B16F0 cells at 10 uM using L-DOPA as substrate preincubated with compound followed by substrate addition and measured after 20 mins by UV-Visible spectrophotometric analysis relative to control; type: cell-based
[14] = biological target: T2, Tyrosinase (Mus musculus); experiment: Potency index, ratio of compound effect to KA effect for inhibition of tyrosinase in mouse B16F0 cells at 10 uM using L-DOPA as substrate; type: cell-based
[15] = biological target: T2, Tyrosinase (Mus musculus); experiment: Inhibition of intracellular tyrosinase in mouse B16F0 cells at 5 uM using L-DOPA as substrate preincubated with compound followed by substrate addition and measured after 20 mins by UV-Visible spectrophotometric analysis relative to control; type: cell-based
[16] = biological target: T4, Tyrosinase (Agaricus bisporus) (UniProt O42713); experiment: Potency index, ratio of IC50 for KA to IC50 for test compound for inhibition of mushroom tyrosinase diphenolase activity using L-dopa as substrate preincubated for 10 mins followed by substrate addition by UV-Visible spectrophotometric analysis
T4 sequence (whole entry): T3 sequence (O42713 whole entry)

IC50 (Tyrosinase [1]): 30.1 µM | inhibition [2]: Dose-dependent effect | Ratio [3]: 5 | inhibition [5]: 16.2% | IC50 (Tyrosinase [6]): 63.1 µM | inhibition [7]: 3.9% | inhibition [8]: 13% | Ratio [9]: 3 | inhibition [10]: 20.1% | Ratio IC50 [11]: 8 | IC50 (Tyrosinase [12]): 25 µM | inhibition [13]: 7.8% | Ratio [14]: 6 | inhibition [15]: 6.1% | Ratio IC50 [16]: 2
SMILES: COc1cc(O)c(C(=O)/C=C/c2ccccc2)c(O)c1C
MNTC at 24 h [4]: 100 µM | Activity (B16-F0): Dose-dependent effect
